The record followed here is patent publication US12668803B2, “Glypican-3-specific modified aptamer and use thereof” (APTAMER SCIENCES INC., priority 2019, dated 2026).

Series [1] relates to GPC3-expressing hepatoma cells. Briefly: Cell-killing effect (CCK-8) of gemcitabine-bound combi aptamers. The series is classed as cell-based. The settings on record: FIG. 23 and FIG. 24. The method, then: In detail, Huh-7 cells (ATCC, Rockville, MD, USA) were seeded in a 96-well plate at a density of 1×10^4/mL, and cultured using a DMEM (Gibco, Grand Island, NY, USA) medium containing 10% FBS (Gibco, Grand Island, NY, USA) and 1% antibiotics (penicillin/streptomycin) under conditions of 5% CO2 and 37° C. Next day, the aptamer stock (100 μM) was mixed with 5×SB18 buffer to prepare the stock at a concentration of 80 μM, and heated at 95° C. for 5 min, and then cooled at room temperature for 15 min or more. The medium was removed from the cultured cells, and 100 μL of a serum-free medium was added thereto, and cultured under conditions of 37° C. and 5% CO2 for 1 hr. The serum-free medium was removed, and then the cells were washed with 100 μL of 1×PBS. 100 μL of KRPH buffer was added, and cultured under conditions of 37° C. and 5% CO2 for 1 hr. The aptamer was diluted with KRPH buffer to 2-fold of the desired concentration, and added to a 96-well plate at 1× concentration, and cultured under conditions of 37° C. and 5% CO2 for 4 hr. After treatment with the aptamer, the KRPH buffer was removed, and then 100 μL of culture medium was added and cultured under conditions of 37° C. and 5% CO2 for […]. 6 days later, 10 μL of a kit solution of CCK-8 (Cell Counting Kit-8) was added to each well, and then cultured under conditions of 37° C. and 5% CO2 for 3 hr. Cell death levels were examined at […] using a microplate reader.

For series [2], the system named is hepatoma cells (Hep3B, HepG2). Briefly: Cell cycle analysis (propidium iodide, FACS). The series is classed as cell-based. The settings on record: 4 hr treatment, FIGS. 25 and 26. The method, then: (§1) To analyze the effects of combi 4 and combi 5 bound with three or five gemcitabines on the cell cycle of hepatoma cells, cell cycle analysis was performed. In detail, Hep3B, HepG2, and A431 cells were seeded in a 6-well plate at a density of 1×10^6/ml, and cultured using a DMEM medium containing 10% FBS and 1% antibiotics (penicillin/streptomycin) under conditions of 5% CO2 and 37° C., respectively. Next day, 100 μM of the modified aptamer stock was mixed with 5×SB18 buffer to prepare the aptamer at a concentration of 80 μM, and heated at 95° C. for 5 min, and then cooled at room temperature for 15 min or more. The medium was removed from the cultured cells, and replaced by a serum-free medium, and cultured under conditions of 37° C. and 5% CO2 for 1 hr. The serum-free medium was removed, and then the cells were washed with 2 ml of 1×PBS. 2 ml of KRPH buffer was added, and cultured under conditions of 37° C. and 5% CO2 for 1 hr. The aptamer was added, and cultured under conditions of 37° C. and 5% CO2 for 4 hr. The KRPH buffer was removed, and 2 ml of 1×PBS was added thereto to perform washing, and then PBS was removed. 2 ml of 1×PBS was added, and cells were scraped using a scraper, and collected in FACs tubes, followed by centrifugation at 4° C. and 2000 rpm for 4 minutes. 1/500-fold diluted RNAase A and propidium iodide diluted with PBS at a concentration of 50 μg/ml were added to the FACs tubes at a volume of 500 μL, followed by pipetting. Incubation was performed at room temperature for 30 min while blocking the light, and then cell cycle was measured.

The test system of series [3] is squamous cell carcinoma cells (A431). The series can be described thus: Cell cycle analysis (propidium iodide, FACS). The settings on record: 4 hr treatment, FIG. 27. The series is classed as cell-based. On the procedure:
as §1

Series [4] deals with GPC3 (Homo sapiens, UniProt P51654). Briefly: Protein binding assay with 32P-labeled aptamers (Zorbax resin, filter plate, phosphorimager). The settings on record: FIG. 1. On the procedure: To select an aptamer which is the most specific to GPC3 from 7 aptamer libraries expected to be specific to GPC3 [2428-12-09, 2428-12-10, 2428-12-11, 2424-30-01, 2424-30-05, 2424-30-06, 2424-30-07, all 40-mer], a binding assay was performed through […] labeling. In detail, to […] RI-labeled and unlabeled oligonucleotide region at the oligonucleotide 3′-end of each candidate aptamer sequence, 0.25 μL of α-32P, 0.25 μL of DNA nucleotidylexotransferase (terminal transferase), 1 μL of 10×NEB buffer (New England Biolabs, USA), 1 μL of CoCl2, 7.5 μL of a template (aptamer sequence) (total 10 μL) were added to a plate, which was then sealed with foil, and then incubated at 37° C. for 30 min (enzyme incubation). After incubation at 70° C. for 10 min (enzyme incubation), each of the incubated samples was diluted with 30 μL of distilled water. The lower part of the Microspin G-50 column was removed and a tube was put thereon. After spinning at 800 rcf for 1 min, the tube was removed. The sample was put in a resin, followed by spinning at room temperature and 800 rcf for 2 min.
Chain of GPC3 (P51654 25-554): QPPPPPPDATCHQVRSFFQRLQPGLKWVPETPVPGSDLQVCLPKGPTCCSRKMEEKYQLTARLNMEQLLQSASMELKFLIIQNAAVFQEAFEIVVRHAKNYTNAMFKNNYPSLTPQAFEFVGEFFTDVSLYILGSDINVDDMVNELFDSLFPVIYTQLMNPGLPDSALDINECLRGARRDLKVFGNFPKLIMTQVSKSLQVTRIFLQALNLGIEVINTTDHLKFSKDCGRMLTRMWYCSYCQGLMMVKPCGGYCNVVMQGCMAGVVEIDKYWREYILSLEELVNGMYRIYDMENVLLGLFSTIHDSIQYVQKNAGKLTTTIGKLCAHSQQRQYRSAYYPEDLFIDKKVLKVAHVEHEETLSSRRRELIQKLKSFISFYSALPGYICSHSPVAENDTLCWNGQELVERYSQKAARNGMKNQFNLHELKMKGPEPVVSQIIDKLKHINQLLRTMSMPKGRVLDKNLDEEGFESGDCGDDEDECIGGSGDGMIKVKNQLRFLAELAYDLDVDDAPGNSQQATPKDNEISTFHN
The aptamers, from which RI-labeled and unlabeled oligonucleotide ends were removed, were diluted with 100 μL of 1×SB18T0.05 to 20,000 cpm. The aptamers were heated at 95° C. for 5 min, and subsequently, cooled at 37° C. for 15 min. 100 nM of protein (GPC3) was subjected to 4.64-fold serial dilution, and each 30 μL of a total of 8 points was added to each well. 200 μL of 1×SB18T0.05 was added to the aptamers, of which heating and cooling were completed, and then 30 μL thereof was added to each well for a total volume of 60 μL. 2 μL of the aptamer was dropped as an input control on a nylon filter, followed by incubation at 37° C. for 30 min. During incubation, 30 μL of 1×SB18T0.05 was added to a filter plate in advance. After incubation, 5.5 μL of Zorbax resin was added, and allowed to react at 1400 rpm for 1 min. […] The screen was analyzed, and the binding degree according to each protein concentration was derived (percentage bound value).

As to “Combi 11 G(3) (DNA GNGAANGCGNNGAANNANWYSSSNNCAGNCANCAC; gemcitabines, 2'-MOE, 2'-F, BzdU, 3' idT; Combi 11 G(3); (1)..(1) G is 2-Methoxyethyl-DNA.; (2)..(2) n is BzdU.; (3)..(3) G is 2-Methoxyethyl-DNA.; (4)..(4) A is 2-Fluorine-DNA.; (5)..(5) A is 2-Fluorine-DNA.; (6)..(6) n is BzdU.; (10)..(10) n is BzdU.; (11)..(11) n is BzdU.; (12)..(12) G is 2-Fluorine-DNA.; (13)..(13) A is 2-Fluorine-DNA.; (14)..(14) A is 2-Methoxyethyl-DNA.; (15)..(15) n is BzdU.; (16)..(16) n is BzdU.; (17)..(17) A is)”, the “concentration from which a cell-killing effect is shown” value (“concentration” below) in series [1] stood at 200 nM.

With “Combi 4 G(5) (DNA GNGAANGCGNNGAANNANGYSSSNNCAGNCANSAS; 5 gemcitabines, 2'-OMe, 2'-F, BzdU, 3' idT; Combi 4 G(5); (1)..(1) G is 2-O-Methoxy-DNA.; (2)..(2) n is BzdU.; (3)..(3) G is 2-O-Methoxy-DNA.; (4)..(4) A is 2-Fluorine-DNA.; (5)..(5) A is 2-Fluorine-DNA.; (6)..(6) n is BzdU.; (10)..(10) n is BzdU.; (11)..(11) n is BzdU.; (12)..(12) G is 2-Fluorine-DNA.; (13)..(13) A is 2-Fluorine-DNA.; (14)..(14) A is 2-Fluorine-DNA.; (15)..(15) n is BzdU.; (16)..(16) n is BzdU.; (17)..(17) A is 2-Fluorine-)”, in series [1], the “concentration” value amounted to 100 nM. Also, the cell cycle arrest entry is “arrested hepatoma cells at the G1/S phase” in series [2] and “no cell cycle arrest” in series [3].

In the case of “Combi 5 G(5) (DNA GNGAANGCGNNGAANNANWYSSSNNCAGNCANSAS; 5 gemcitabines, 2'-OMe, BzdU; Combi 5 G(5); (1)..(1) G is 2-O-Methoxy-DNA.; (2)..(2) n is BzdU.; (3)..(3) G is 2-O-Methoxy-DNA.; (4)..(4) A is 2-Fluorine-DNA.; (5)..(5) A is 2-Fluorine-DNA.; (6)..(6) n is BzdU.; (10)..(10) n is BzdU.; (11)..(11) n is BzdU.; (12)..(12) G is 2-Fluorine-DNA.; (13)..(13) A is 2-Fluorine-DNA.; (14)..(14) A is 2-O-Methoxy-DNA.; (15)..(15) n is BzdU.; (16)..(16) n is BzdU.; (17)..(17) A is 2-O-Methox)”, the “concentration” value in series [1] is listed as 100 nM. The values for the cell cycle arrest result in series [2] and in series [3] were “arrested hepatoma cells at the G1/S phase” and “no cell cycle arrest”, respectively.

In the case of “12-10: SEQ ID NO: 1, 40-mer GPC3-specific aptamer with BzdU bases (GGGAAGnGAAnGCGnnGAAnnAnGnCCCnnCAGnCAnCAC; BzdU bases, as printed in the source, key not given here)”, the “binding ability among the candidates” value in series [4] (7 candidate 40-mer aptamers) is recorded as “most excellent binding ability”. Also, in series [4], the “maximum binding capacity (Bmax)” value came to 0.79. Further, the dissociation constant Kd in series [4] (read-out: dissociation constant (Kd)) stood at 1.5 nM.

With `Nc1ccn([C@@H]2O[C@H](CO)[C@@H](O)C2(F)F)c(=O)n1` [gemcitabine, 2′,2′-difluoro 2′-deoxycytidine, reference compound], in series [3], the cell cycle arrest entry is “no cell cycle arrest”.

One may read the Kd as the concentration at which binding is half-saturated.
